Data taken from ChEMBL document CHEMBL5291721, “A preclinical secondary pharmacology resource illuminates target-adverse drug reaction associations of marketed drugs” (Nat Commun, 2023).

Tests used:
[1] = molecular target: T1, Muscarinic acetylcholine receptor M1 (Homo sapiens, UniProt P11229); assay type: functional, cell-based
T1 sequence (P11229 whole entry): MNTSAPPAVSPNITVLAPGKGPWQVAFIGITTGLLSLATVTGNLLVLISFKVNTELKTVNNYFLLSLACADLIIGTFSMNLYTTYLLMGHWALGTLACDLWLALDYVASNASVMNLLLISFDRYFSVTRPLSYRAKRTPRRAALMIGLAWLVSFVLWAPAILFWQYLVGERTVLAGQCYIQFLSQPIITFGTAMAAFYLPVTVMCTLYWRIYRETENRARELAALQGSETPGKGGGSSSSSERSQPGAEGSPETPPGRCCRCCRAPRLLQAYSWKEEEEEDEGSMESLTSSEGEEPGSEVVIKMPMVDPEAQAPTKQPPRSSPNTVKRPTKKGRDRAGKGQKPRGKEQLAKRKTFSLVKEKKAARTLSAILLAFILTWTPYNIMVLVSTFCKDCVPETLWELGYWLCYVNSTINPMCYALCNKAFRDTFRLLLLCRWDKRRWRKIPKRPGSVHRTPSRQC

D(3) dopamine receptor = D(3) dopamine receptor (Homo sapiens, UniProt P35462)
Estrogen receptor = molecular target: T2, Estrogen receptor (Homo sapiens, UniProt P03372)
T2 sequence (P03372 whole entry): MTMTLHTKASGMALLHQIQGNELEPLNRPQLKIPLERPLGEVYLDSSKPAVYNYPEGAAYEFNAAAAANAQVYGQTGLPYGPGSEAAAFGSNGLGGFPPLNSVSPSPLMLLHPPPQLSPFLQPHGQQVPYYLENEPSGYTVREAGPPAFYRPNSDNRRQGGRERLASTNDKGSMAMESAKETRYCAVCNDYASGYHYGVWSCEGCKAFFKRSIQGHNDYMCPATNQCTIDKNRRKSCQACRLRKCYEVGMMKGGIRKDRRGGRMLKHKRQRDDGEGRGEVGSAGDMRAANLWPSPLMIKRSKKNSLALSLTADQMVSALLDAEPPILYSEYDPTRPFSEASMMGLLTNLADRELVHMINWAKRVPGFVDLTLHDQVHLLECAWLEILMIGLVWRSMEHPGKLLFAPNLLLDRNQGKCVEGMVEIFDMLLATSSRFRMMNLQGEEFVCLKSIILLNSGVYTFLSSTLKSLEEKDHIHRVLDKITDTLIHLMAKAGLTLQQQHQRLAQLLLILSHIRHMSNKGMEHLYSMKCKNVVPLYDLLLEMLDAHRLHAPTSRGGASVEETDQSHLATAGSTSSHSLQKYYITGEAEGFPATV

[2] = molecular target: Gamma-aminobutyric acid receptor subunit alpha-1 (Rattus norvegicus, UniProt P62813)
[3] = molecular target: T3, 5-hydroxytryptamine receptor 1A (Homo sapiens, UniProt P08908)
T3 sequence (P08908 whole entry): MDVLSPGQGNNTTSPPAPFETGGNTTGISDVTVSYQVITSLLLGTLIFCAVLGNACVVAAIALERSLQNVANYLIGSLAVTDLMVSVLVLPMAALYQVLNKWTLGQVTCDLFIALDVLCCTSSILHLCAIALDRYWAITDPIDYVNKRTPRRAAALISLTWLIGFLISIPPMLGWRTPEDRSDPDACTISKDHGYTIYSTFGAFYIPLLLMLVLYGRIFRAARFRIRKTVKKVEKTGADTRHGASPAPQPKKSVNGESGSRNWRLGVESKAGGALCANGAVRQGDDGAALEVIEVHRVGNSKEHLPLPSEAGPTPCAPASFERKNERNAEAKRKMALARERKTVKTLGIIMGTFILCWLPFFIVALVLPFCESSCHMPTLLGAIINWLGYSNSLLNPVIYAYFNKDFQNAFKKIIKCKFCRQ

[4] = molecular target: 5-hydroxytryptamine receptor 2B (Homo sapiens, UniProt P41595); assay type: functional, cell-based
[5] = molecular target: Sodium-dependent serotonin transporter (Homo sapiens, UniProt P31645)
[6] = molecular target: Gamma-aminobutyric acid receptor subunit alpha-1/alpha-2/beta-2/gamma-2 (Homo sapiens, UniProt P14867+P18507+P47869+P47870); assay type: protein-complex assay
Note: assay procedure not described here.

Chain of Sodium-dependent serotonin transporter (P31645 whole entry): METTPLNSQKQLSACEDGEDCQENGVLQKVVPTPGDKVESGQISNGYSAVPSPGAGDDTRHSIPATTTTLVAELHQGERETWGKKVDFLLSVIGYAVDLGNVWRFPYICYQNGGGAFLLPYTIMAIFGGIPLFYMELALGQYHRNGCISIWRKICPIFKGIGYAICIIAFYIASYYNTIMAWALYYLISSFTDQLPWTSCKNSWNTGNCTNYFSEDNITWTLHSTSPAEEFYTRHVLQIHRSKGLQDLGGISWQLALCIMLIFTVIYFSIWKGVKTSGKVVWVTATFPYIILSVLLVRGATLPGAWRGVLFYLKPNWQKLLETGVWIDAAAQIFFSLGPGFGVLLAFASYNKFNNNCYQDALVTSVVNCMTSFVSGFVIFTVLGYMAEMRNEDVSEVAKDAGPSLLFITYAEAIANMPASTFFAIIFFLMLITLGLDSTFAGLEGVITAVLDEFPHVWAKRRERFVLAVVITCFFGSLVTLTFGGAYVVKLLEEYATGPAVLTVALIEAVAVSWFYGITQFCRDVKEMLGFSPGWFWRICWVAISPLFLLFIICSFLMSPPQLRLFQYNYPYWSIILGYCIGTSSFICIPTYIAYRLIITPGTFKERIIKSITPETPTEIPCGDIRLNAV
Chain of D(3) dopamine receptor (P35462 whole entry): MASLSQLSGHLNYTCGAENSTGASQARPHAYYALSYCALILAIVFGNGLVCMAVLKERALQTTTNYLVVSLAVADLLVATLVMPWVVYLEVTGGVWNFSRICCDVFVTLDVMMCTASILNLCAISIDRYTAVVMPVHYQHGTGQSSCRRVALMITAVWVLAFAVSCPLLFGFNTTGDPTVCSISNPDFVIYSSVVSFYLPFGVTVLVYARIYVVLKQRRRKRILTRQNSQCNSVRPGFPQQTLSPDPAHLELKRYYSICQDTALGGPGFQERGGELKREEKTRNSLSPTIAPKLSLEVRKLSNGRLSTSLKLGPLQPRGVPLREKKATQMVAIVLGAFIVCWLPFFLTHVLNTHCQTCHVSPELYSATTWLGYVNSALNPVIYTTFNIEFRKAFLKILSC
Chain of 5-hydroxytryptamine receptor 2B (P41595 whole entry): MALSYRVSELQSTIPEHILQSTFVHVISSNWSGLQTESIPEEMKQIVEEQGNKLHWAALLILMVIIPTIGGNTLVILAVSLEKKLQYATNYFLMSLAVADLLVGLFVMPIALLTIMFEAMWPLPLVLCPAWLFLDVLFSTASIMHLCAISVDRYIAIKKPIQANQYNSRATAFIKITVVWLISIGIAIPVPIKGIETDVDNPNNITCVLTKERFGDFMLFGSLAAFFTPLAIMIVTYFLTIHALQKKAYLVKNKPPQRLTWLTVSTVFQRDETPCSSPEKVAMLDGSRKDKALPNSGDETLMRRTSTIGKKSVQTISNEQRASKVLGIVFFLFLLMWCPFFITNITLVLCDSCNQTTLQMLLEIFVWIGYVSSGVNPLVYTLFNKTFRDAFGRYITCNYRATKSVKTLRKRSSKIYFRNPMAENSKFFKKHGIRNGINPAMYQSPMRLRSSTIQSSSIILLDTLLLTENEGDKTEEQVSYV
Chain of Gamma-aminobutyric acid receptor subunit alpha-1/alpha-2/beta-2/gamma-2 (P14867 whole entry): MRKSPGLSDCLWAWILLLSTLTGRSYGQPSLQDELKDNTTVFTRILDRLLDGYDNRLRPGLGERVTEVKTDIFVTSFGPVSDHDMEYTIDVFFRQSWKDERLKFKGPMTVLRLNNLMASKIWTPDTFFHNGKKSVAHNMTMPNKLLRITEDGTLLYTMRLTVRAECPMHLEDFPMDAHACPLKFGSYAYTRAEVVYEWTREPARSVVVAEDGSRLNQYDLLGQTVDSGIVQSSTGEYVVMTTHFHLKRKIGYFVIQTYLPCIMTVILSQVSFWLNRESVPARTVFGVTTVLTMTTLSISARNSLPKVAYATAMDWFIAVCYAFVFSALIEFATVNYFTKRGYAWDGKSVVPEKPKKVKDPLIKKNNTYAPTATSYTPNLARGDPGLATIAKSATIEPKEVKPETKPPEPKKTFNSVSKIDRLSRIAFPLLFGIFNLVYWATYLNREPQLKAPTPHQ
Chain of Gamma-aminobutyric acid receptor subunit alpha-1/alpha-2/beta-2/gamma-2 (P47870 whole entry): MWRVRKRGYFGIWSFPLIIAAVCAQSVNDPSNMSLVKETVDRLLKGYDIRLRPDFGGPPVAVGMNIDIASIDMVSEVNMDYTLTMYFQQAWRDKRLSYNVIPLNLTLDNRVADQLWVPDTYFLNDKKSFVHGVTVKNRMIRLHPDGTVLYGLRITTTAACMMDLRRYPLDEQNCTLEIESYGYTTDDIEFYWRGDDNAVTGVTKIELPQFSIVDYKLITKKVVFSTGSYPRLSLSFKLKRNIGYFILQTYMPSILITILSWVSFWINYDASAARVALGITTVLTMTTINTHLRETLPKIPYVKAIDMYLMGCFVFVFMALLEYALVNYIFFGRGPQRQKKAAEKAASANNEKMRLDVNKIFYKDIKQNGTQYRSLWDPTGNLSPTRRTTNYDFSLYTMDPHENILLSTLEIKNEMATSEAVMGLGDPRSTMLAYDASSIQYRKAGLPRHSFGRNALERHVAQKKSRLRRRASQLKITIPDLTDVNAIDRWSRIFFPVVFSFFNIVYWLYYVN
Chain of Gamma-aminobutyric acid receptor subunit alpha-1/alpha-2/beta-2/gamma-2 (P18507 whole entry): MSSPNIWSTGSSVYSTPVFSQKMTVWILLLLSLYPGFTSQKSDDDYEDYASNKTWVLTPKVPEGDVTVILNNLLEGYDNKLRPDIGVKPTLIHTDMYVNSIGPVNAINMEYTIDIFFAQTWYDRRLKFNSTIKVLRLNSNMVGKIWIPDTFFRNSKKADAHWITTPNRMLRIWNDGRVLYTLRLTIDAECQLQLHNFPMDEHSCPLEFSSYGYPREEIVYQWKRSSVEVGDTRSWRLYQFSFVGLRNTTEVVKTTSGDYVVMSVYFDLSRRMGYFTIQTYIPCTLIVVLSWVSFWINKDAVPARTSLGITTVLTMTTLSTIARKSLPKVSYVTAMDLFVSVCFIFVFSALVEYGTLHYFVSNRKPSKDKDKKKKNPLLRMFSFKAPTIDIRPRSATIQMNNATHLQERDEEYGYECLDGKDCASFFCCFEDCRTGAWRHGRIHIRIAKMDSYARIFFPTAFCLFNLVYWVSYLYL
Chain of Gamma-aminobutyric acid receptor subunit alpha-1/alpha-2/beta-2/gamma-2 (P47869 whole entry): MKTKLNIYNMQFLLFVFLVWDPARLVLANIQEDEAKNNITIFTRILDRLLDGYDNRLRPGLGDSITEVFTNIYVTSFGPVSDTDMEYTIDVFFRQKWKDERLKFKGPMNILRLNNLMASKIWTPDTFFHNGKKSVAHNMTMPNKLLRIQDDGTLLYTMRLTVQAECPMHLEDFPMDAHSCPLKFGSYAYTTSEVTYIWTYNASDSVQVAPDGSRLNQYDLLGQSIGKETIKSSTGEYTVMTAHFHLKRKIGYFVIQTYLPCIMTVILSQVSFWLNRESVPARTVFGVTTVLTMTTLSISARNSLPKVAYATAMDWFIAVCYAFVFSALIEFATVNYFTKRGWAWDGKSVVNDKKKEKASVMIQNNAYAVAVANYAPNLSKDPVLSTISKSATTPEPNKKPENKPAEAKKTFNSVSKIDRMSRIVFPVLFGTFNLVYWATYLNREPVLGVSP
Chain of Gamma-aminobutyric acid receptor subunit alpha-1 (P62813 whole entry): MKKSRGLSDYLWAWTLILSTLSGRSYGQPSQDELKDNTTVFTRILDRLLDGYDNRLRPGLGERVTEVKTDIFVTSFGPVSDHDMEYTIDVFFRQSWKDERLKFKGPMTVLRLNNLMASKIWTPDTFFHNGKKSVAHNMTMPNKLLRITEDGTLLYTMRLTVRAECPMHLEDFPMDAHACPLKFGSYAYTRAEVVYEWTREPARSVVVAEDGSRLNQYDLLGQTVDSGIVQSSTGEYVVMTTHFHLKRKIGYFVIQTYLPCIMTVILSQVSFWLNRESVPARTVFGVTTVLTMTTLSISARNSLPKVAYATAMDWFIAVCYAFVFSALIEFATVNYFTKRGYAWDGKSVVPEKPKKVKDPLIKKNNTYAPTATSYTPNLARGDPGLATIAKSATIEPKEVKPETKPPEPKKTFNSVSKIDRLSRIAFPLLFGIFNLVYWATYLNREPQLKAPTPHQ

Structure (SMILES)	AC50 [1]	AC50 (D(3) dopamine receptor)	AC50 (Estrogen receptor)	AC50 [2]	AC50 [3]	AC50 [4]	AC50 [5]	AC50 [6]
CCC(CC)(CC(=O)Nc1cccc(/C=C/c2nc(C3CCC3)cs2)c1)C(=O)O	> 10 µM	> 30 µM	> 30 µM	> 30 µM	> 30 µM	> 30 µM	> 30 µM	
CCOC(=O)[C@H](CCc1ccccc1)N[C@@H](C)C(=O)N1CC2(C[C@H]1C(=O)O)SCCS2	> 30 µM	> 30 µM			> 30 µM	> 30 µM	> 30 µM	> 30 µM
C[S+](CC[C@H](N)C(=O)[O-])C[C@H]1O[C@@H](n2cnc3c(N)ncnc32)[C@H](O)[C@@H]1O (stereo not given in full) [ADEMETIONINE]	> 30 µM	> 30 µM		> 30 µM	> 30 µM	> 30 µM	> 30 µM	
CCC(C)(C)c1ccc(CC(C)CN2C[C@@H](C)O[C@@H](C)C2)cc1 (stereo not given in full) [AMOROLFINE]	> 30 µM	22 µM	> 30 µM	> 30 µM	> 30 µM	> 30 µM	> 30 µM	
NC(=O)C[C@H](N)C(=O)O [ASPARAGINE]	> 30 µM	> 30 µM		> 30 µM	> 30 µM	> 30 µM	> 30 µM	
CCCC1O[C@@H]2C[C@H]3[C@@H]4CCC5=CC(=O)C=C[C@]5(C)[C@H]4[C@@H](O)C[C@]3(C)[C@]2(C(=O)CO)O1 (stereo not given in full) [BUDESONIDE]		> 30 µM			> 30 µM	> 30 µM		> 30 µM
Clc1ccc(C(OCCN2CCCCC2)c2ccccc2)cc1 (stereo not given) [CLOPERASTINE]	> 30 µM	1.05 µM	> 30 µM	> 30 µM	20.1 µM	> 30 µM	15.4 µM	
CC[C@H]1CN2CCc3cc(OC)c(OC)cc3[C@@H]2C[C@@H]1C[C@H]1NCCc2cc(OC)c(OC)cc21 [EMETINE]		> 30 µM		> 30 µM	22.7 µM	> 30 µM		
COc1ccc(C(=O)Nc2ccccc2CCC2CCCCN2C)cc1 (stereo not given) [ENCAINIDE]	> 30 µM	> 30 µM	> 30 µM	> 30 µM	> 30 µM	> 30 µM	> 30 µM	
NC1=NCC2c3ccccc3Cc3ccccc3N12 (stereo not given) [EPINASTINE]	> 30 µM	> 30 µM			1.28 µM	> 30 µM	10.3 µM	28.3 µM
CC(=O)Oc1ccc2c(c1)CC[C@@H]1[C@@H]2CC[C@]2(C)[C@@H](O)CC[C@@H]12 [ESTRADIOL ACETATE]	> 30 µM	> 30 µM			> 30 µM	> 30 µM	> 30 µM	> 30 µM
Clc1cc(Cl)c(OCC#CI)cc1Cl [HALOPROGIN]		1.16 µM	> 30 µM	> 30 µM	> 30 µM	> 30 µM		
CCN(CC)CCNc1ccc(CO)c2sc3ccccc3c(=O)c12 [HYCANTHONE]	> 30 µM	19.5 µM	> 30 µM	> 30 µM	7.25 µM	> 30 µM	16 µM	
O=c1[nH]c(=O)n([C@H]2C[C@H](O)[C@@H](CO)O2)cc1I [IDOXURIDINE]		> 30 µM			> 30 µM	> 30 µM		> 30 µM
O=[N+]([O-])O[C@@H]1CO[C@H]2[C@@H]1OC[C@@H]2O [ISOSORBIDE MONONITRATE]	> 30 µM	> 30 µM	> 30 µM	> 30 µM	> 30 µM	> 30 µM	> 30 µM	
Cc1cc(C)c(NC(=O)CN(CC(=O)O)CC(=O)O)c(C)c1Br [MEBROFENIN]		> 30 µM		> 30 µM	> 30 µM	> 30 µM	> 30 µM	

Structure (SMILES)	AC50 [1]	AC50 (D(3) dopamine receptor)	AC50 (Estrogen receptor)	AC50 [2]	AC50 [3]	AC50 [4]	AC50 [5]	AC50 [6]
Cc1cc(OP(=O)(O)O)c2ccccc2c1OP(=O)(O)O [MENADIOL SODIUM DIPHOSPHATE]	> 30 µM	> 30 µM		> 30 µM	> 30 µM	> 30 µM	> 30 µM	
Cc1ccccc1OCC(O)CO (stereo not given) [MEPHENESIN]	> 30 µM	> 30 µM		> 10 µM	> 30 µM	> 30 µM	> 30 µM	
COc1ccccc1N1CCN(CC(O)COc2cccc3ccccc23)CC1 (stereo not given) [NAFTOPIDIL]		0.04 µM		> 30 µM	0.0086 µM	> 30 µM	1.43 µM	
CCN(CC)CCc1nc(-c2ccccc2)no1 [OXOLAMINE]	> 30 µM		> 30 µM	> 30 µM	15.5 µM	> 30 µM	> 30 µM	
CC(C)(C)C(=O)OCOC(=O)[C@@H]1N2C(=O)[C@@H](NC(=O)[C@H](N)c3ccccc3)[C@H]2SC1(C)C [PIVAMPICILLIN]	> 30 µM	> 30 µM	> 30 µM	> 30 µM	> 30 µM	> 30 µM	> 30 µM	
COc1cc2nc(N3CCN(C(=O)c4ccco4)CC3)nc(N)c2cc1OC [PRAZOSIN]		> 30 µM	> 30 µM	> 30 µM		> 30 µM		
Cc1oc(=O)oc1CN1CCN(c2cc3c(cc2F)c(=O)c(C(=O)O)c2n3C(C)S2)CC1 (stereo not given) [PRULIFLOXACIN]		> 30 µM	> 30 µM	> 30 µM	> 30 µM	> 30 µM	> 30 µM	
CC(C)COC(=O)OCN1C(=O)CN(CCN2CC(=O)N(COC(=O)OCC(C)C)C(=O)C2)CC1=O [SOBUZOXANE]	> 30 µM	> 30 µM	> 30 µM	> 30 µM	> 30 µM	> 30 µM	> 30 µM	
Cc1cc(NS(=O)(=O)c2ccc(N)cc2)nc(C)n1 [SULFISOMIDINE]	> 30 µM	> 30 µM	> 30 µM	> 30 µM	> 30 µM	> 30 µM	> 30 µM	
O=c1[nH]c(=O)n(C2CCCO2)cc1F (stereo not given) [TEGAFUR]				> 30 µM	> 30 µM	> 30 µM		
CCCCCNC(=N)N/N=C/c1c[nH]c2ccc(OC)cc12 [TEGASEROD]	> 3 µM	5.62 µM		> 30 µM	0.04 µM	> 30 µM	2.57 µM	
COc1cc2c3cc1Oc1cc(ccc1O)C[C@@H]1c4c(cc(OC)c(O)c4Oc4ccc(cc4)C[C@@H]3N(C)CC2)CC[N+]1(C)C [TUBOCURARINE]		> 30 µM			> 30 µM	> 30 µM		> 30 µM
COC1=C(OC)C(=O)C(C/C=C(\C)CC/C=C(\C)CC/C=C(\C)CC/C=C(\C)CC/C=C(\C)CC/C=C(\C)CC/C=C(\C)CC/C=C(\C)CC/C=C(\C)CCC=C(C)C)=C(C)C1=O [UBIDECARENONE]	> 30 µM	> 30 µM	> 30 µM	> 30 µM	> 30 µM	> 30 µM	> 30 µM	
C=CCCCCCCCCC(=O)O [UNDECYLENIC ACID]		> 30 µM	> 30 µM	> 30 µM	> 30 µM	> 30 µM	> 30 µM	
OC[C@@H](O)[C@H](O)[C@@H](O)CO [XYLITOL]	> 30 µM	> 30 µM			> 30 µM	> 30 µM	> 30 µM	> 30 µM
